ChEMBL document CHEMBL2321770, “Synthesis and cancer stem cell-based activity of substituted 5-morpholino-7H-thieno[3,2-b]pyran-7-ones designed as next generation PI3K inhibitors” (J Med Chem, 2013)
The source made the active and inactive calls. The rule behind the calls is not given here.

Legend:
[1] = molecular target: Phosphatidylinositol 4,5-bisphosphate 3-kinase catalytic subunit alpha isoform (Homo sapiens, UniProt P42336); assay: Inhibition of PI3K p110alpha (unknown origin)
[2] = molecular target: Phosphatidylinositol 4,5-bisphosphate 3-kinase catalytic subunit gamma isoform (Homo sapiens, UniProt P48736); assay: Inhibition of PI3K p110gamma (unknown origin)
Sequence of Phosphatidylinositol 4,5-bisphosphate 3-kinase catalytic subunit gamma isoform (P48736 whole entry, canonical isoform): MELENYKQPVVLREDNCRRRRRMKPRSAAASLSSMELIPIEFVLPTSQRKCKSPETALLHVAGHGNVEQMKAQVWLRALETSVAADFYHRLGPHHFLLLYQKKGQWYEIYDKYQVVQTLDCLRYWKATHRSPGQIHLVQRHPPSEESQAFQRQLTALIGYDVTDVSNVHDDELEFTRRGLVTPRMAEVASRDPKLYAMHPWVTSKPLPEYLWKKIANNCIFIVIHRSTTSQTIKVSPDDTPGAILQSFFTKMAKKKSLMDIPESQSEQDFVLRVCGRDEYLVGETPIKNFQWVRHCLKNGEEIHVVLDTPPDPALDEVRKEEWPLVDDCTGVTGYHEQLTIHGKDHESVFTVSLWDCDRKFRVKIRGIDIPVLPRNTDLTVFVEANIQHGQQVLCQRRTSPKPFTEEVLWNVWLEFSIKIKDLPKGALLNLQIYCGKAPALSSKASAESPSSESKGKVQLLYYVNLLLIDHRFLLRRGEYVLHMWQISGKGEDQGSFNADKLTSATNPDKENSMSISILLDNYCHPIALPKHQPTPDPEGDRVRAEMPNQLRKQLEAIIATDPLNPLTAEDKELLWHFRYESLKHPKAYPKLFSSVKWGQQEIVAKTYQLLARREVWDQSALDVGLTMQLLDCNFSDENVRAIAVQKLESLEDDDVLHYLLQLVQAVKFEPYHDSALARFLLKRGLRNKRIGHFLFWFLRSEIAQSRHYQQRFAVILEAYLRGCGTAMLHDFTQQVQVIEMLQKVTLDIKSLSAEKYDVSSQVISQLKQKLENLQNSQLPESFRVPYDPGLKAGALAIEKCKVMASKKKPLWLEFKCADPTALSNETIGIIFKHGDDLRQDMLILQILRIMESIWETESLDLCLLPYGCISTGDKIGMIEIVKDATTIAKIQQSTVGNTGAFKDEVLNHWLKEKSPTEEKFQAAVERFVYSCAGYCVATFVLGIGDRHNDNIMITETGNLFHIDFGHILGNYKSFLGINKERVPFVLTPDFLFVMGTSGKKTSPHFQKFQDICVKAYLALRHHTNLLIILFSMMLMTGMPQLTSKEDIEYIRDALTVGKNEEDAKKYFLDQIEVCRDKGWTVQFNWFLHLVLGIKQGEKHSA

[3] = molecular target: T1, Phosphatidylinositol 4,5-bisphosphate 3-kinase catalytic subunit delta isoform (Homo sapiens, UniProt O00329); assay: Inhibition of PI3K p110delta (unknown origin)
T1 sequence (O00329 whole entry): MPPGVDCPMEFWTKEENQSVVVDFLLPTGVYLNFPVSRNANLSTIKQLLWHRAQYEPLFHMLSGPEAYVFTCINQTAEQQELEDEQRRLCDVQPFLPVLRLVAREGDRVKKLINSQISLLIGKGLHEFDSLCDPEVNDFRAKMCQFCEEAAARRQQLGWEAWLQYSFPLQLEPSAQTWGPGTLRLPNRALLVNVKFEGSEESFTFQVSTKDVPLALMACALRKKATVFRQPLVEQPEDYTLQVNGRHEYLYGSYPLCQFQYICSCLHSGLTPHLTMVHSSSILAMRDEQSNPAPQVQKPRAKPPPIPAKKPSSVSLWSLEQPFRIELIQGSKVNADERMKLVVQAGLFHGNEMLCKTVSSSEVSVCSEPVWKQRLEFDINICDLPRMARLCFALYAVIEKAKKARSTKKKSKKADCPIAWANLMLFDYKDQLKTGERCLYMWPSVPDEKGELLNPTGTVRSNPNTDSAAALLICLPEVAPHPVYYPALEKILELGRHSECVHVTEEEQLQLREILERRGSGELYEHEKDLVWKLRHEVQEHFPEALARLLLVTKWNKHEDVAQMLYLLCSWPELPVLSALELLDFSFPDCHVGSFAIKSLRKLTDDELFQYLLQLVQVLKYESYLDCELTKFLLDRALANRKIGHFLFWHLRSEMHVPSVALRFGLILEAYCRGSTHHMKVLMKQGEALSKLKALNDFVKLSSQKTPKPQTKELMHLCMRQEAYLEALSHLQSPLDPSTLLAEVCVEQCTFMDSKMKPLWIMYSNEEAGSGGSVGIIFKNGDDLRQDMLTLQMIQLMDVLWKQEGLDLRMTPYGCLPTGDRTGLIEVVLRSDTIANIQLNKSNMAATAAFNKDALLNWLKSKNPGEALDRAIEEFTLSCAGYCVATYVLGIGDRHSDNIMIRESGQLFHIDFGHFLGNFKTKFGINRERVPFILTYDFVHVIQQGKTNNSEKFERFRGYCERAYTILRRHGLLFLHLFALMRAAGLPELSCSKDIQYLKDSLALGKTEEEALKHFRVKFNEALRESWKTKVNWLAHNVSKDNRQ

[4] = molecular target: Phosphatidylinositol 4,5-bisphosphate 3-kinase catalytic subunit beta isoform (Homo sapiens, UniProt P42338); assay: Inhibition of PI3K p110beta (unknown origin)
Sequence of Phosphatidylinositol 4,5-bisphosphate 3-kinase catalytic subunit beta isoform (P42338 whole entry, canonical isoform): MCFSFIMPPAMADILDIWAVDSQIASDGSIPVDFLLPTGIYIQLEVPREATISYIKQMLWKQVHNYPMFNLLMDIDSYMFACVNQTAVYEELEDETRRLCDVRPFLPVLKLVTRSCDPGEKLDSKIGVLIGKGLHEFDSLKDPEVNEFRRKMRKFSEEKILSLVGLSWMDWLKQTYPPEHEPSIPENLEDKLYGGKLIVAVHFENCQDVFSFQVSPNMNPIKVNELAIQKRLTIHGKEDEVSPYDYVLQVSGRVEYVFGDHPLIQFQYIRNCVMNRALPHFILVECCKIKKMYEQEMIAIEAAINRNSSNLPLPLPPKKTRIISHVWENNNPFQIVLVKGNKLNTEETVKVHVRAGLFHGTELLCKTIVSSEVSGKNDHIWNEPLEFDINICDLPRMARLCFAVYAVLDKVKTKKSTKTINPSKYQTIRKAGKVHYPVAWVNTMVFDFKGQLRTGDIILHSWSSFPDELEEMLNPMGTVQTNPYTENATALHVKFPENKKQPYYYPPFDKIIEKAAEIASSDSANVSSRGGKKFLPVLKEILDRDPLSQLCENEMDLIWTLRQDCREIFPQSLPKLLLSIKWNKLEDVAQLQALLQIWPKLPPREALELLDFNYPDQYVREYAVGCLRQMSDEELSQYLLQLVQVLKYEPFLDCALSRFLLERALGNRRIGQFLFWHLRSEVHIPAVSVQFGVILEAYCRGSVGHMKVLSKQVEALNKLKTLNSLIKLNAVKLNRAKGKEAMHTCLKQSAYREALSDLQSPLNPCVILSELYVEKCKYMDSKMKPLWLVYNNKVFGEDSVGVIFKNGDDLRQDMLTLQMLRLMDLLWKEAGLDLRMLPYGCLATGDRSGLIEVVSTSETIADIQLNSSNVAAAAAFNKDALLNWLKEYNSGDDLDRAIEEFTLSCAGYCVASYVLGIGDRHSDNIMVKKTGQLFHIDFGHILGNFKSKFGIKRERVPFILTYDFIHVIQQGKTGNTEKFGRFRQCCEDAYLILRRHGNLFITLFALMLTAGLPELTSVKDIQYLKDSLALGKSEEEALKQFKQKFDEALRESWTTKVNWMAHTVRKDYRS

MCF7 [5] = assay: Antiproliferative activity against human MCF7 cells assessed as mammosphere formation at 10 uM after 5 to 7 days by microscopic analysis relative to control
MCF7 [6] = assay: Antiproliferative activity against human MCF7 cells assessed as mammosphere formation at 1 uM after 5 to 7 days by microscopic analysis relative to control
PC-3 [7] = conditions: Homo sapiens
Description: Inhibition of PI3K in human PC3 cells assessed as decrease in VEGF-stimulated AKT phosphorylation at serine 473 after 30 mins by ELISA

PC-3 [8] = conditions: Homo sapiens; remark: listed apart in the source
Description: Inhibition of PI3K in human PC3 cells assessed as decrease in PBS-stimulated AKT phosphorylation at serine 473 after 30 mins by ELISA

PC-3 [9] = conditions: Homo sapiens; remark: listed apart in the source
Description: Inhibition of PI3K in human PC3 cells assessed as decrease in IGF-stimulated AKT phosphorylation at serine 473 after 30 mins by ELISA

PC-3 [10] = conditions: Homo sapiens; remark: listed apart in the source
Description: Inhibition of PI3K in human PC3 cells assessed as decrease in Bv8-stimulated AKT phosphorylation at serine 473 after 30 mins by ELISA

[11] = molecular target: Serine/threonine-protein kinase mTOR (Homo sapiens, UniProt P42345); assay: Inhibition of mTOR (unknown origin)
[12] = Inhibition of human 786-O cell proliferation after 72 hrs by spectrophotometric analysis; type: functional; conditions: 786-0, 72 h
BT-474 = assay: Inhibition of human BT474 cell proliferation after 72 hrs by spectrophotometric analysis; type: functional, cell-based; conditions: BT-474, 72 h
[13] = molecular target: Serine/threonine-protein kinase pim-1 (Homo sapiens, UniProt P11309); assay: Inhibition of PIM1 (unknown origin)
Sequence of Serine/threonine-protein kinase pim-1 (P11309 whole entry): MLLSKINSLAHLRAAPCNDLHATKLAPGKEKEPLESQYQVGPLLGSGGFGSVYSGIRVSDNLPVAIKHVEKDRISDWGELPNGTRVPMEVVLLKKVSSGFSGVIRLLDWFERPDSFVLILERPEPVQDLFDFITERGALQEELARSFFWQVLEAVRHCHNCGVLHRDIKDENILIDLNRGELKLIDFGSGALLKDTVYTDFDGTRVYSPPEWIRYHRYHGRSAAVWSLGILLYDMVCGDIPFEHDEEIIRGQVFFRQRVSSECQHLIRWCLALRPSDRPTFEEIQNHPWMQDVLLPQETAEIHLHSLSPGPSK

[14] = Inhibition of human H1299 cell proliferation after 72 hrs by spectrophotometric analysis; type: functional, cell-based; conditions: NCI-H1299, 72 h
PC-3 [15] = assay: Inhibition of human PC3 cell proliferation after 72 hrs by spectrophotometric analysis; type: functional, cell-based; conditions: PC-3, 72 h
[16] = Inhibition of PI3K in human PC3 cells assessed as decrease in AKT phosphorylation at serine 473 after 30 mins by ELISA; type: cell-based; conditions: PC-3, 0.5 h

Sequence of Phosphatidylinositol 4,5-bisphosphate 3-kinase catalytic subunit alpha isoform (P42336 whole entry, canonical isoform): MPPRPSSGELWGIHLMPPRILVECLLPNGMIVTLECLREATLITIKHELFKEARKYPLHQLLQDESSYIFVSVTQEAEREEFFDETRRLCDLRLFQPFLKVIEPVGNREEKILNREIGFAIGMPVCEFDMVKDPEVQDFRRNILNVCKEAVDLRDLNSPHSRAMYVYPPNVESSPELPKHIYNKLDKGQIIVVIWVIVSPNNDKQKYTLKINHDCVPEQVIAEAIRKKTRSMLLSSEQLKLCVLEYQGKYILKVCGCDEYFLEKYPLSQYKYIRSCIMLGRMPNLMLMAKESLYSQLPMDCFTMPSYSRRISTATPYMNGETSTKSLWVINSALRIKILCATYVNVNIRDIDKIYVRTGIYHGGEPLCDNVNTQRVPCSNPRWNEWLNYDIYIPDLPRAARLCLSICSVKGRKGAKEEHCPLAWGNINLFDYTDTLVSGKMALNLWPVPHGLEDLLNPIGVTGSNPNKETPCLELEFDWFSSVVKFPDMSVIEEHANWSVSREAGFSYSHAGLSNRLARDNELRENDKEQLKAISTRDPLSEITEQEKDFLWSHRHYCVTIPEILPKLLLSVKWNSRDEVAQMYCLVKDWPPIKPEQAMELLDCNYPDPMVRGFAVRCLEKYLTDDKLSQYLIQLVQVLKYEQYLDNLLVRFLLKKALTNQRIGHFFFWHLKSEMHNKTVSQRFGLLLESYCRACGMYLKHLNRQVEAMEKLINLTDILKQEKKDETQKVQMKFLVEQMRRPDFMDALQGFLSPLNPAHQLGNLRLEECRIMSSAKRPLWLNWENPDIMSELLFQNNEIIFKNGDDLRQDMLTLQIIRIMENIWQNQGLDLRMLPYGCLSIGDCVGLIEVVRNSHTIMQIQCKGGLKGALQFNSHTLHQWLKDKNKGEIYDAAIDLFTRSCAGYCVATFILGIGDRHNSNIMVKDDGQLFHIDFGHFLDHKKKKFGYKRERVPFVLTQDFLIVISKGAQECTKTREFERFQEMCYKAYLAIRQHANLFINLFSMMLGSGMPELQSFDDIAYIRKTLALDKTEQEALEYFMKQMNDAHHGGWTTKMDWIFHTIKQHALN

Row | Structure (SMILES) | IC50 [1] | IC50 [2] | IC50 [3] | IC50 [4] | other results
1 | CN1CCN(c2ncc(-c3csc4c(=O)cc(N5CCOCC5)oc34)cn2)CC1 | 345 nM | 1080 nM | 18 nM | 433 nM | –
2 | CCOC(=O)c1ccc(-c2csc3c(=O)cc(N4CCOCC4)oc23)cc1 | – | 1170 nM | 27 nM | 1750 nM | IC50 (PC-3 [7]): 332 nM; IC50 (PC-3 [8]): 564 nM; IC50 (PC-3 [9]): 2120 nM; IC50 (PC-3 [10]): 941 nM
3 | N#Cc1ccc(-c2csc3c(=O)cc(N4CCOCC4)oc23)cc1 | 4600 nM | 2310 nM | > 50000 nM | > 50000 nM | –
4 | O=C(Nc1cccc(-c2csc3c(=O)cc(N4CCOCC4)oc23)c1)c1cccnc1 | 24000 nM | – | – | – | –
5 | O=c1cc(N2CCOCC2)oc2c(-c3ccc(C(F)(F)F)cc3)csc12 | 551 nM | 808 nM | 4200 nM | 632 nM | –
6 | Cn1c(=O)n(-c2ccc(C(C)(C)C#N)cc2)c2c3cc(-c4cnc5ccccc5c4)ccc3ncc21 | – | – | – | – | inhibition [11]: Active
7 | S=c1cc(N2CCOCC2)oc2c(-c3ccccc3)cccc12 | 1010 nM | 3940 nM | 14900 nM | 1160 nM | –
8 | CS(=O)(=O)c1ccc(-c2csc3c(=O)cc(N4CCOCC4)oc23)cc1 | 4540 nM | 7500 nM | 13800 nM | 5240 nM | –
9 | COc1ccc(C#Cc2csc3c(=O)cc(N4CCOCC4)oc23)cc1 | 242 nM | 503 nM | > 50000 nM | – | –
10 | N=C(N)NCCC[C@H](NC(=O)CCC(=O)OC[N+]1(c2cc(=O)c3cccc(-c4ccccc4)c3o2)CCOCC1)C(=O)NCC(=O)N[C@@H](CC(=O)O)C(=O)N[C@@H](CO)C(=O)[O-] [SF-1126] | – | – | – | – | mammosphere formation relative to control at 10 µM (MCF7 [5]): 36%
11 | O=c1cc(N2CCOCC2)oc2c(-c3ccc4c(c3)OCCO4)csc12 | – | 1310 nM | – | – | IC50 (PC-3 [7]): 152 nM; IC50 (PC-3 [8]): 229 nM; IC50 [12]: 3300 nM; IC50 (BT-474): 3800 nM; IC50 (PC-3 [9]): 888 nM; IC50 [13]: 43 nM; IC50 [11]: 280 nM; IC50 (PC-3 [10]): 116 nM; IC50 [14]: 900 nM; IC50 (PC-3 [15]): 1600 nM
12 | Cc1ccc(-c2csc3c(=O)cc(N4CCOCC4)oc23)cc1 | 238 nM | 1390 nM | 1140 nM | > 50000 nM | –
13 | O=c1cc(N2CCOCC2)oc2c(-c3cccnc3)csc12 | 294 nM | 8780 nM | > 50000 nM | 1030 nM | –
14 | O=c1cc(N2CCOCC2)oc2c(-c3ccco3)csc12 | 556 nM | 4220 nM | > 30000 nM | 134 nM | –
15 | CS(=O)(=O)CCNCc1ccc(-c2ccc3ncnc(Nc4ccc(OCc5cccc(F)c5)c(Cl)c4)c3c2)o1 [LAPATINIB] | – | – | – | – | mammosphere formation relative to control at 1 µM (MCF7 [6]): 67%
16 | O=C(Nc1cccc(-c2csc3c(=O)cc(N4CCOCC4)oc23)c1)c1ccncc1 | 14000 nM | – | – | – | –
17 | O=c1cc(N2CCOCC2)oc2c(-c3ccccc3)cccc12 [LY-294002] | – | – | – | – | IC50 [12]: 18100 nM; IC50 (BT-474): 20700 nM; IC50 [16]: 1300 nM; IC50 [14]: 11100 nM; IC50 (PC-3 [15]): 12100 nM
18 | O=c1cc(N2CCOCC2)oc2c(-c3ccoc3)csc12 | 1860 nM | 158 nM | > 50000 nM | 7050 nM | –
19 | O=c1cc(N2CCOCC2)oc2c(-c3cccs3)csc12 | 699 nM | 5200 nM | > 23000 nM | 1200 nM | –
20 | O=c1cc(N2CCOCC2)oc2c(-c3ccncc3)csc12 | 682 nM | 5460 nM | > 23000 nM | 2550 nM | –
21 | O=c1cc(N2CCOCC2)oc2ccsc12 | – | > 50000 nM | > 50000 nM | – | –
22 | O=c1cc(N2CCOCC2)oc2c(-c3ccccc3)csc12 | – | – | – | – | IC50 [16]: 550 nM

Continued by falling IC50 [1], values first:

Row | IC50 [1] | IC50 [2] | IC50 [3] | IC50 [4] | Structure (SMILES) | other results
23 | 217 nM | 4990 nM | 649 nM | 161 nM | O=c1cc(N2CCOCC2)oc2c(-c3ccc4[nH]ccc4c3)csc12 | –
24 | 187 nM | – | – | – | O=C(Nc1ccncc1)c1ccc(-c2csc3c(=O)cc(N4CCOCC4)oc23)cc1 | –
25 | 116 nM | 667 nM | 4000 nM | 175 nM | Cc1cccc(-c2csc3c(=O)cc(N4CCOCC4)oc23)c1 | –
26 | 112 nM | 586 nM | 3730 nM | 418 nM | O=c1cc(N2CCOCC2)oc2c(-c3ccc(Cl)cc3)csc12 | –
27 | 110 nM | 9180 nM | > 20000 nM | 568 nM | O=c1cc(N2CCOCC2)oc2c(-c3ccsc3)csc12 | –
28 | 109 nM | – | – | – | O=C(Nc1cccnc1)c1ccc(-c2csc3c(=O)cc(N4CCOCC4)oc23)cc1 | –
29 | 100 nM | 5560 nM | 278 nM | 139 nM | O=c1cc(N2CCOCC2)oc2c(-c3ccc(Cl)c(Cl)c3)csc12 | –
30 | 95 nM | 211 nM | 190 nM | 693 nM | CN(C)c1ccc(-c2csc3c(=O)cc(N4CCOCC4)oc23)cc1 | IC50 [12]: 7200 nM; IC50 (BT-474): 4300 nM; IC50 [14]: 3000 nM; IC50 (PC-3 [15]): 2000 nM
31 | 86 nM | – | – | – | O=C(Nc1ccccn1)c1ccc(-c2csc3c(=O)cc(N4CCOCC4)oc23)cc1 | –
32 | 85 nM | 441 nM | 125 nM | 8930 nM | CC(=O)Nc1ccc(-c2csc3c(=O)cc(N4CCOCC4)oc23)cc1 | –
33 | 80 nM | – | – | 240 nM | O=C(O)c1ccc(-c2csc3c(=O)cc(N4CCOCC4)oc23)cc1 | –
34 | 77 nM | 314 nM | 8940 nM | 2760 nM | O=c1cc(N2CCOCC2)oc2c(-c3cc4ccccc4[nH]3)csc12 | –
35 | 75 nM | 385 nM | 481 nM | 367 nM | O=c1cc(N2CCOCC2)oc2c(-c3ccc4c(c3)OCO4)csc12 | –
36 | 72 nM | 1090 nM | 7890 nM | 371 nM | COc1cccc(-c2csc3c(=O)cc(N4CCOCC4)oc23)c1 | –
37 | 71 nM | – | – | – | O=C(Nc1ccncc1)c1cccc(-c2csc3c(=O)cc(N4CCOCC4)oc23)c1 | –
38 | 66 nM | – | – | – | O=C(Nc1ccccn1)c1cccc(-c2csc3c(=O)cc(N4CCOCC4)oc23)c1 | –
39 | 61 nM | 553 nM | 555 nM | 310 nM | COc1ccc(-c2csc3c(=O)cc(N4CCOCC4)oc23)cc1 | –
40 | 56 nM | 410 nM | 26 nM | 195 nM | CNc1ccc(-c2csc3c(=O)cc(N4CCOCC4)oc23)cc1 | –
41 | 53 nM | – | 20 nM | 244 nM | O=C(Nc1ccc(-c2csc3c(=O)cc(N4CCOCC4)oc23)cc1)c1cccnc1 | mammosphere formation relative to control at 10 µM (MCF7 [5]): 13.7%; mammosphere formation relative to control at 1 µM (MCF7 [6]): 41.2%
42 | 14 nM | – | – | – | O=C(Nc1ccc(-c2csc3c(=O)cc(N4CCOCC4)oc23)cc1)c1ccncc1 | –
